Measured values published in ChEMBL document CHEMBL1157889, “Peripheral site acetylcholinesterase inhibitors targeting both inflammation and cholinergic dysfunction” (Bioorg Med Chem Lett, 2010).

Experiments:
[1] = Chemical stability assessed as hydrolysis half life in presence of 80% human plasma; type: ADME, cell-free
Acetylcholinesterase = Acetylcholinesterase (Electrophorus electricus, UniProt O42275); assay: Inhibition of electric eel AChE by Ellman's method
Acetylcholinesterase, sequence (O42275 whole entry): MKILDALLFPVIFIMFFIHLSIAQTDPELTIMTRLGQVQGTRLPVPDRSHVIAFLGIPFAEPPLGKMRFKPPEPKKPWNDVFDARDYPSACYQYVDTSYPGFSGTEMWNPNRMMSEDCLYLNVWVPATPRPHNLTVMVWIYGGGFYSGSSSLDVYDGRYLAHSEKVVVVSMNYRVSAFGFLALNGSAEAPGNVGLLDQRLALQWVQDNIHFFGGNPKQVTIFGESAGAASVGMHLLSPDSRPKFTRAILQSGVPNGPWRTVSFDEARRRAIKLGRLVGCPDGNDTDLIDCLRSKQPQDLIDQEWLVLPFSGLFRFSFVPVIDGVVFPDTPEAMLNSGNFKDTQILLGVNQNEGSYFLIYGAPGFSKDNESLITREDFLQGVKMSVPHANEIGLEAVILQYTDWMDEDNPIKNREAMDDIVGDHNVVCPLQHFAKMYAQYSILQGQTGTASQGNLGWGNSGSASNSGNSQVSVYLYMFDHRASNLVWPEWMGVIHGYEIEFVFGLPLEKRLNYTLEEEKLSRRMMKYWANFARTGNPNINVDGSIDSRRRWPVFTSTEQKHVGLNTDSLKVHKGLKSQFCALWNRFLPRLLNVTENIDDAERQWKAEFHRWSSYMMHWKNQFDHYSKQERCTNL

| SMILES | t1/2 [1] [h] | IC50 (Acetylcholinesterase) [nM] |
| --- | --- | --- |
| CC(C)(C)CCOC(=O)Cc1ccccc1Nc1c(Cl)cccc1Cl | 1.85 | – |
| COc1ccc2cc([C@H](C)C(=O)OCc3ccc(OC(=O)OCC[Si](C)(C)C)cc3)ccc2c1 | 4.22 | – |
| COc1ccc2cc([C@H](C)C(=O)OCC[Si](C)(C)C)ccc2c1 | 1.05 | – |
| COc1ccc2c(c1)c(CC(=O)OCc1ccc(OC(=O)OCCC(C)(C)C)cc1)c(C)n2C(=O)c1ccc(Cl)cc1 | 7.8 | – |
| COc1ccc2cc([C@H](C)C(=O)OCCC(C)(C)C)ccc2c1 | 0.633 | – |
| CC(C)(C)CCOC(=O)Oc1ccc(COC(=O)Cc2ccccc2Nc2c(Cl)cccc2Cl)cc1 | 5.95 | 510 |
| COc1ccc2cc([C@H](C)C(=O)OCc3ccc(OC(=O)OCCC(C)(C)C)cc3)ccc2c1 | 2.25 | – |
| CC(C)Cc1ccc(C(C)C(=O)OCc2ccc(OC(=O)OCCC(C)(C)C)cc2)cc1 (centres undefined) | 3.4 | – |
